Patent US20150299659A1, “MUSCLE CELL PRODUCTION” (Monash University, priority 2014, published 2015)

What was measured:
Assay type in all cases: cell-based, human
[1] = test system: hPSCs; test: Immunocytochemical quantification of muscle cells in unsorted hPSC cultures; settings: exposure to CHIR for up to 10 days
Method: Experiments were performed using all four hPSC lines. When colony size reached >600 μm in diameter and colony density on the plate was approximately 30-40%, we induced differentiation of hPSC by switching the culture medium from mTESR1 to a chemically defined, serum-free medium DMEM-F12 supplemented with insulin-transferrin-selenium (ITS) (all from Sigma-Aldrich, St. Louis, Mo.). […] Culture medium was then replaced by ITS containing 20 ng/ml of FGF2 (Miltenyi Biotech) for a further 14 days. For each experimental control condition, hPSCs differentiation was induced as follows: 1) CHIR only: ITS medium containing 3 μM CHIR from days 0-4, followed by ITS medium only until day of analysis; and 2) FGF2 only: ITS medium only between days 0-4, followed by ITS medium containing 20 ng/ml FGF2 for 14 days. […]
For cytospin preparations of FACS sorted populations, cells were spun onto glass slides using Cytospin 4 (Shandon, Thermofisher, Waltham, Mass.). […] Images were analyzed with Nikon NIS-Elements 3.2 software. […]
Following withdrawal of FGF2 and a further 17 days of culture in ITS medium alone areas with skeletal muscle cells were scored in treated culture dishes, prior to FACS analysis and identified by immunocytochemistry as PAX3+ and PAX7+ precursors (FIG. 2B) (Relaix et al (2005) Nature 435:948-953) and bipolar skeletal myocytes, positive for myogenin and sarcomeric myosin (MF20) (FIG. 2C).

[2] = test system: hPSCs; test: CHIR concentration optimisation for differentiation of hPSCs towards a myogenic phenotype
Method: Experiments were performed using all four hPSC lines. When colony size reached >600 μm in diameter and colony density on the plate was approximately 30-40%, we induced differentiation of hPSC by switching the culture medium from mTESR1 to a chemically defined, serum-free medium DMEM-F12 supplemented with insulin-transferrin-selenium (ITS) (all from Sigma-Aldrich, St. Louis, Mo.). […] Culture medium was then replaced by ITS containing 20 ng/ml of FGF2 (Miltenyi Biotech) for a further 14 days. For each experimental control condition, hPSCs differentiation was induced as follows: 1) CHIR only: ITS medium containing 3 μM CHIR from days 0-4, followed by ITS medium only until day of analysis; and 2) FGF2 only: ITS medium only between days 0-4, followed by ITS medium containing 20 ng/ml FGF2 for 14 days. Medium was replaced daily until the day of the analysis. Human PSCs were first exposed to 3 μM CHIR for 4 days, and then the small molecule was replaced with 20 ng/ml of FGF2 for an additional 2 weeks (FIG. 2A). To optimize the differentiation of hPSCs towards a myogenic phenotype, different CHIR concentrations were tested. […] The FGF signaling pathway has been identified to regulate several developmental processes of muscle formation. […]

[3] = test system: hESC (HES3); test: RT-PCR and marker analysis of dorsal tissue and endoderm in differentiating hPSCs
Method: For cytospin preparations of FACS sorted populations, cells were spun onto glass slides using Cytospin 4 (Shandon, Thermofisher, Waltham, Mass.). Cells were then fixed with 100% cold methanol for 5 minutes and subsequently rehydrated in phosphate buffered solution (PBS) for 15-20 minutes. Cultured cells were fixed with 4% paraformaldehyde for 10 minutes at room temperature and permeabilized with 0.3% Triton X-100 in PBS for 30 minutes. A complete list of primary and fluorochrome-labelled secondary antibodies used in this study is provided in the Supporting Information (Table 1). Incubations with primary and subsequently secondary antibodies were performed in Incubation Buffer (0.1% BSA, 2% FBS, 0.1% Triton X-100 in PBS) for 40 minutes at 37° C. Image acquisition was performed on an inverted Nikon Eclipse Ti epifluorescence microscope with the appropriate filter sets using single channel acquisition on a Nikon Digital sight DS-U2 camera. Images were analyzed with Nikon NIS-Elements 3.2 software. All immunofluorescence images are representative of one individual experiment. […]
Total RNA was extracted using RNeasy Mini kit (Qiagen, Hilden, Germany), and DNAse I treatment (Qiagen) was performed to avoid genomic DNA contamination. […] The inventors optimized the PCR conditions and determined the linear amplification range for each primer by varying annealing temperature and cycle number. […]

[4] = test system: hPSCs; test: FACS quantification of myogenic cell populations from differentiated hPSCs; settings: for percentage of CXCR4+/C-MET+ and ACHR+ populations compared to CHIR+FGF2 cultures: single-agent conditions (CHIR only or FGF2 only)
Method: Experiments were performed using all four hPSC lines. When colony size reached >600 μm in diameter and colony density on the plate was approximately 30-40%, we induced differentiation of hPSC by switching the culture medium from mTESR1 to a chemically defined, serum-free medium DMEM-F12 supplemented with insulin-transferrin-selenium (ITS) (all from Sigma-Aldrich, St. Louis, Mo.). Starting at day 0 of differentiation, cells were cultured in the presence of 3 μM CHIR 99021 (Miltenyi Biotech, Auburn, Calif.) for 4 days. Culture medium was then replaced by ITS containing 20 ng/ml of FGF2 (Miltenyi Biotech) for a further 14 days. For each experimental control condition, hPSCs differentiation was induced as follows: 1) CHIR only: ITS medium containing 3 μM CHIR from days 0-4, followed by ITS medium only until day of analysis; and 2) FGF2 only: ITS medium only between days 0-4, followed by ITS medium containing 20 ng/ml FGF2 for 14 days. Medium was replaced daily until the day of the analysis.
(§1) Cells were dissociated with 0.05% trypsin or TrypLE Select (Invitrogen, Carlsbad, Calif.) to a single cell suspension and incubated with the appropriate fluorochrome-labelled antibodies (Table 1) at a concentration of 10^7 cells/ml for 30 minutes on ice. Indirect labelling of HNK and ACHR antibodies was done using goat anti-mouse Alexa Fluor 488 and goat anti-mouse PE (both from Molecular Probes, Invitrogen) as secondary antibodies. Labelled cells were sorted through a BD Influx (five lasers) flow sorter (BD Biosciences) according to the excitation requirements of the fluorochromes. Sorted populations were analyzed using FlowJo software (Tree Star Inc., Ashland, Oreg.).
Data were analyzed by two-way analysis of variance (ANOVA) followed by Bonferroni's post-test to calculate p values. Analyses were performed using statistical software (GraphPad Prism 5.04; GraphPad Software, San Diego, Calif.). Probability values <0.05 were considered statistically significant. Error bars in each figure represent the standard error of the mean of three or more individual experiments. For qPCR data, p values were calculated for changes in expression of markers over time compared to day 0. For quantitative analysis of FACS sorting data, the percentage of myogenic cells relative to the total number of cells were obtained for each experimental culture treatment, and p values were calculated for differences between the means of each experimental condition.

[5] = test system: hESC HES3; test: Immunocytochemistry of cytospin preparations of sorted cells
Method: as §1
For cytospin preparations of FACS sorted populations, cells were spun onto glass slides using Cytospin 4 (Shandon, Thermofisher, Waltham, Mass.). Cells were then fixed with 100% cold methanol for 5 minutes and subsequently rehydrated in phosphate buffered solution (PBS) for 15-20 minutes. Cultured cells were fixed with 4% paraformaldehyde for 10 minutes at room temperature and permeabilized with 0.3% Triton X-100 in PBS for 30 minutes. A complete list of primary and fluorochrome-labelled secondary antibodies used in this study is provided in the Supporting Information (Table 1). […] Images were analyzed with Nikon NIS-Elements 3.2 software. […]

| Compound | muscle derivation after prolonged exposure [1] | toxicity to differentiating hPSCs ([2]; CHIR concentration >3 μM) | induction of myogenic phenotype ([2]; CHIR doses of <3 μM) | expression of dorsal markers SOX10 and LMX1a (RT-PCR) ([3]; day 10 of hESC (HES3) differentiation) | generation of endoderm cells ([3]; lack of specific endodermal markers in the cultures) | myogenic induction of hPSCs ([4]; CHIR only, 3 μM days 0-4, then ITS medium only) | percentage of CXCR4+/C-MET+ and ACHR+ populations compared to CHIR+FGF2 cultures [4] | phenotype of sorted CXCR4+/C-MET− cells [5] | phenotype of sorted CXCR4−/C-MET+ cells [5] | cell fate of CXCR4+/C-MET− and CXCR4−/C-MET+ fractions compared to CHIR+FGF2 ([4]; FGF2 only, absence of CHIR treatment) |
| --- | --- | --- | --- | --- | --- | --- | --- | --- | --- | --- |
| Cc1c[nH]c(-c2cnc(NCCNc3ccc(C#N)cn3)nc2-c2ccc(Cl)cc2Cl)n1 [CHIR, CHIR 99021] | no muscle cells were identified | High toxicity | inefficient induction | expressed only in CHIR (GSK3β inhibitor) treated cells | not permissive for the generation of endoderm cells | sufficient for myogenic induction | Reduction in the percentage | – | – | – |
| FGF2: fibroblast growth factor, used at 20 ng/ml to expand the muscle precursor compartment | – | – | – | – | – | – | almost complete loss | complete switch towards SOX1 expression | PAX3+ and PAX7+ cells are not present | fundamental shift from a myogenic to a non-myogenic cell fate |
